Measurements reported in patent US20220017877A1, “BILIRUBIN OXIDASE ACTIVITY IMPROVING METHOD, AND BILIRUBIN OXIDASE PRODUCT” (OZEKI CORPORATION, priority 2018, published 2022).

Assay: ABTS initial absorbance (A436) reduction rate (Test Example 3)
Assay type: physicochemical
Settings: in one minute at 25° C.; 1 mM (single compound) or 0.011 g nitrogen element in 100 mL (composition); pH 8.5
Source text: In the present specification, the absorbance of a solution containing ABTS (ABTS solution), at a wavelength of 436 nm, is defined as an ABTS initial absorbance (A436). In the present specification, the ABTS initial absorbance (A436) reduction rate (%) of the activity improving agent is defined to be a reduction rate (%) of the absorbance of a mixed solution, which contains the above ABTS solution and the above activity improving agent, at a wavelength of 436 nm in one minute, with respect to the ABTS initial absorbance (A436) (100%). Note that the ABTS solution is a solution in which the concentration of ABTS is adjusted such that the absorbance (A436) at a wavelength of 436 nm is approximately 1.3 at an optical path length of 1.0 cm. The value “approximately 1.3” here is intended to mean a value in a range in which 1.3 is obtained by rounding the value to the first decimal place. Test Examples described later will explain specific methods for measuring the absorbance (A436) of the ABTS solution at a wavelength of 436 nm and the ABTS initial absorbance (A436) reduction rate (%) of the activity improving agent. ABTS is an abbreviation for 2,2′-azinobis(3-ethylbenzothiazoline-6-sulfonic acid).
In the present activity improving method, when the ABTS initial absorbance (A436) reduction rate (%) of the activity improving agent is measured, the concentration of the activity improving agent in the ABTS solution for measurement is set as follows: (a) the concentration is set to 1 mM, when the molecular weight of the activity improving agent is evident as in a case where the activity improving agent is made of a single compound; and (b) when the activity improving agent is a substance which is made of a composition having an inevident molecular weight, the content of nitrogen element is used as a reference and the concentration is set such that the content of nitrogen element derived from the activity improving agent is 0.011 g in 100 mL of the ABTS solution for measurement. Note that, in the above (b), the content of nitrogen element derived from the activity improving agent in the ABTS solution is a value calculated by the Kjeldahl method.
The following describes a specific evaluation method. ABTS employed was an ABTS manufactured by Roche Diagnostics K.K. Further, the ABTS was dissolved in a 50 mM glycine-KOH (pH 8.5) buffer so that the concentration of the ABTS became 2.0 mg/mL. An ABTS solution was thus prepared. The absorbance of the ABTS solution at a wavelength of 436 nm (ABTS initial absorbance (A436)) was measured at an optical path length of 1.0 cm, by using a molecular absorption spectrometer Spectra Max Plus 384 (manufactured by Molecular Devices Japan K.K.). As a result the absorbance was approximately 1.3. Next, 5 μL of an activity improving agent solution or a comparative substance solution was added to 195 μL of the ABTS solution, so that a reaction solution for evaluating ABTS (hereinafter, also referred to as “reaction solution A”) was prepared. […]

Compound	A436 reduction rate (%)
O=C1O[C@H]([C@@H](O)CO)C(O)=C1O [L-ascorbic acid]	87.81%
O=c1[nH]c(=O)c2[nH]c(=O)[nH]c2[nH]1 [Uric acid, uric acid]	71.49%
